We go through eleven molecules from patent US6762205B1, “Phenyl sulfamate derivatives” (Teikoku Hormone Mfg. Co., Ltd., priority 1999, dated 2004).

Data set [1] addresses T1, steroid sulfatase (Rattus norvegicus, UniProt P15589).
T1 construct: the liver and the uterus were excised from each rat; from tissue; host or cells: rat liver and uterus homogenate (2,000 x g supernatant) after 5 days of dosing
T1 sequence (P15589 20-577): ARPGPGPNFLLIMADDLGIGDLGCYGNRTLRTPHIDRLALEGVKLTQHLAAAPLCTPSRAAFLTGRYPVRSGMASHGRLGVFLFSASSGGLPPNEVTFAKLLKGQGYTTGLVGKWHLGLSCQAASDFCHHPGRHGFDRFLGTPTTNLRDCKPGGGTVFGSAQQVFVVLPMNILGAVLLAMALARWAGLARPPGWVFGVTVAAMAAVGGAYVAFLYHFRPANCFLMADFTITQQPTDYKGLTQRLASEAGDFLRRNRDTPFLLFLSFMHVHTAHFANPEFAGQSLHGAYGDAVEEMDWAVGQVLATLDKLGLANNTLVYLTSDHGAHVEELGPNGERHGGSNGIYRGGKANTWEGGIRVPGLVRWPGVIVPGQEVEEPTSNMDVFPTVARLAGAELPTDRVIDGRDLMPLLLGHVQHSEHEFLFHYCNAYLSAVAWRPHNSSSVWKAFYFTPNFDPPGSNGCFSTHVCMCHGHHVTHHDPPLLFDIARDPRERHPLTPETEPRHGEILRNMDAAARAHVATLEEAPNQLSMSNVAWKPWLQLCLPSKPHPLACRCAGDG
The data set is described as follows: In vivo inhibitory effect on steroid sulfatase (rat liver and uterus homogenates after 5 days of dosing). Particulars: po, once a day for 5 days, female SD rats, 4 hours after final administration. The source says: (2) Measurement of an In vivo Inhibitory Effect on Steroid Sulfatase
A test compound was suspended in a 0.5% polyoxyethylene (20) sorbitan monooleate solution (Tween 80) and administered, once a day, to a group of 5 female SD strain rats (weighing 168-194 g) for 5 days.
Four hours after the final administration, all rats were sacrificed by ether anesthesia and dissected. Thus, the liver and the uterus were excised from each rat, washed once with cold phosphate-buffered saline (PBS, pH 7.4), and preserved at −70° C. or below. Each of the liver and the uterus was finely minced with scissors, and suspended in PBS containing 250 mM sucrose (5 ml/g tissue). Under cooling with ice, each suspension was homogenized with an Ultra-Turrax homogenizer. The resulting homogenate was centrifuged (at 4° C.) at 2,000×g for 30 minutes to remove nuclei and cell debris, and the protein concentration in this supernatant was measured according to the method of Bradford [Anal. Biochem. 72, 248-254(1976)].
The homogenate in an amount corresponding to a protein concentration of 100-500 μg/ml was mixed with [6,7-^3H]estrone 3-sulfate (with a specific activity of 49 Ci/mmol; from New England Nuclear, Boston, Mass., USA) in an amount corresponding to a substrate concentration of 20 μM. This mixture was diluted with PBS to a total volume of 1 ml, and incubated at 37° C. for 30 minutes. After incubation (1 ml), the steroid sulfatase activity was determined in the same manner as described above for the in vitro measurement (1).

Data set [2] concerns the target T2, steroid sulfatase (Homo sapiens, UniProt P08842).
T2 sequence (P08842 22-583): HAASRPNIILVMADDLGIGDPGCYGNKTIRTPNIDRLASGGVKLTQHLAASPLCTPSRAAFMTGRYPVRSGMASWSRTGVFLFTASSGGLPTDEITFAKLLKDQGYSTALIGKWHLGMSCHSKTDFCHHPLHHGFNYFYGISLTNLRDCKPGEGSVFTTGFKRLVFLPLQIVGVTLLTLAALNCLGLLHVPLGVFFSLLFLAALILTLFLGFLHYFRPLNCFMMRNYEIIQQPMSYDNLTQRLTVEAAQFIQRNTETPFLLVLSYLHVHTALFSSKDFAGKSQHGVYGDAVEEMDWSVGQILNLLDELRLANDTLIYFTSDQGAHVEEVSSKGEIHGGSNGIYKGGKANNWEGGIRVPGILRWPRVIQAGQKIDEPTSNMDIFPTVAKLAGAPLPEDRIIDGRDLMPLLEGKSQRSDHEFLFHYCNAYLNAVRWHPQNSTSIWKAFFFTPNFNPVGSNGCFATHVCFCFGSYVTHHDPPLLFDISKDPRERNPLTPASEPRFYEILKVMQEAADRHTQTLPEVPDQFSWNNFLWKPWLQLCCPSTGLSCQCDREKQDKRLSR
Particulars: qualitative statement on prior art compounds; cited from earlier work.

The conditions of data set [3]: qualitative statement on prior art compounds; cited from earlier work.
For data set [4], the target named is T2, steroid sulfatase. The data set is described as follows: In vitro inhibitory effect on steroid sulfatase (intact MCF-7 cells, [3H]estrone 3-sulfate hydrolysis). It is filed as cell-based. Set-up: Six-well plates (9.4 cm^2/well) were inoculated with intact MCF-7 human breast cancer cells; endogenous in cells; host or cells: MCF-7 human breast cancer cells. Particulars: MCF7; 3 × 10^−9 M test compound; intact MCF-7 human breast cancer cells; 37° C., 20 hours; read-out: Inhibitory rate (3 × 10^−9 M. %). The method, then: (1) Measurement of an In vitro Inhibitory Effect on Steroid Sulfatase
Six-well plates (9.4 cm^2/well) were inoculated with intact MCF-7 human breast cancer cells at a density of about 1×10^5 cells/well. Using Dulbecco's modified Eagle medium (DMEM) containing 10 mM HEPES, 5% fetal bovine serum, 0.011% sodium pyruvate and 0.37% sodium bicarbonate, the cells were grown to 80% confluency.
The plates were washed with Earle's balanced salt solution (EBSS from Life Technologies Inc., Grand Island, N.Y., USA). Then, serum-free DMEM (2 ml) containing 4 pmol (4.4×10^5 dpm) of [6,7-^3H]estrone 3-sulfate (with a specific activity of 49 Ci/mmol; from New England Nuclear, Boston, Mass., USA), together with a test compound, was placed on each plate and incubated at 37° C. for 20 hours. After incubation, the plate was cooled, and the medium (1 ml) was pipetted into a separating tube containing [4-^14C]estrone (6×10^3 dpm) (with a specific activity of 52.5 mCi/mmol; from New England Nuclear, Boston, Mass., USA). This mixture, together with toluene (4 ml), was vigorously shaken for 30 seconds. It was shown by experiment that more than 90% of [4-^14C]estrone was removed from the aqueous layer by this treatment. A portion (2 ml) of the organic phase was taken, and the ^3H and ^14C contents thereof were measured by scintillation spectrometry. Then, the amount of estrone 3-sulfate hydrolyzed was calculated from the total 3H count (corrected for the volumes of the medium used and the organic phase, and for the recovery of the [^14C]estrone added) and the specific activity of the substrate.

The mark [5] stands for this setting: liver, read-out: Inhibitory rate (0.5 mg/kg, p.o., %) Liver.
[6] abbreviates: uterus, read-out: Inhibitory rate (0.5 mg/kg, p.o., %) Uterus.

Like-named read-outs stand apart in the source and are kept apart here.

In the case of `NS(=O)(=O)Oc1ccc(-c2ccccc2[N+](=O)[O-])cc1` [Example 1, 2′-nitrobiphenyl-4-yl sulfamate], the inhibition at 0.5 mg/kg on steroid sulfatase [1] (setting [5]) stood at 91.2%; at steroid sulfatase [1] (setting [6]) it was 94.9%.
For `CCCCCCCCCCCCCC(=O)NCCc1ccc(OS(N)(=O)=O)cc1` [DU-14, 4-(2-myristoylaminoethyl)phenyl sulfamate], the “inhibitory effect on steroid sulfatase” value at steroid sulfatase [2] was “weak”. Further, the estrogenic action entry in data set [3] is listed as “do not show an estrogenic action”.
For the molecule `NS(=O)(=O)Oc1ccc(-c2ccc([N+](=O)[O-])cc2)cc1` [Example 16, 4′-nitrobiphenyl-4-yl sulfamate], the inhibition at 0.5 mg/kg at steroid sulfatase [1] (setting [5]) worked out at 97%; on steroid sulfatase [1] (setting [6]), 100%.
Take `NS(=O)(=O)Oc1ccc(-c2ccc(OS(N)(=O)=O)cc2)cc1` [Example 21, biphenyl-4,4′-diyl disulfamate]: the inhibition at 0.5 mg/kg on steroid sulfatase [1] (setting [5]) was determined as 97.2%; on steroid sulfatase [1] (setting [6]), 97.6%.
As to `N#Cc1ccc(-c2ccc(OS(N)(=O)=O)cc2)c(C#N)c1` [Example 27, 2′,4′-dicyanobiphenyl-4-yl sulfamate], the inhibition at 0.003 µM on steroid sulfatase [4] was 94%.
Consider `N#Cc1ccccc1-c1ccc(OS(N)(=O)=O)cc1` [Example 3, 2′-cyanobiphenyl-4-yl sulfamate], for which, on steroid sulfatase [4], the inhibition at 0.003 µM was 76%. The inhibition at 0.5 mg/kg at steroid sulfatase [1] (setting [5]) was 95.4%; at steroid sulfatase [1] (setting [6]), 93.8%.
As to `Cc1cc(=O)oc2cc(OS(N)(=O)=O)ccc12` [COUMATE, 4-methylcoumarin 7-sulfamate], the “inhibitory effect on steroid sulfatase” value at steroid sulfatase [2] is on record as “weak”. For the same molecule, the estrogenic action result in data set [3] is reported as “do not show an estrogenic action”.
As to `NS(=O)(=O)Oc1ccc(-c2ccc([N+](=O)[O-])cc2[N+](=O)[O-])cc1` [Example 23, 2′,4′-dinitrobiphenyl-4-yl sulfamate], the inhibition at 0.003 µM on steroid sulfatase [4] stood at 67%.
`C[C@]12CC[C@@H]3c4ccc(OS(N)(=O)=O)cc4CC[C@H]3[C@@H]1CCC2=O` [EMATE, estrone 3-sulfamate]: the “inhibitory effect on steroid sulfatase” value on steroid sulfatase [2] was “powerful inhibitory effect”. In addition, in data set [3], the estrogenic action entry is reported as “powerful estrogenic action”.
On to `N#Cc1ccc(N(Cc2ccc(OS(N)(=O)=O)cc2)n2cnnc2)cc1` [Example 38, 4-[N-(4-cyano-phenyl)-N-(1,2,4-triazol-4-yl)aminomethyl]phenyl sulfamate], for which the inhibition at 0.5 mg/kg was 85.3% on steroid sulfatase [1] (setting [5]) and 79% at steroid sulfatase [1] (setting [6]).
For `N#Cc1cc([N+](=O)[O-])ccc1-c1ccc(OS(N)(=O)=O)cc1` [Example 25, 2′-cyano-4′-nitrobiphenyl-4-yl sulfamate], on steroid sulfatase [4], the inhibition at 0.003 µM turned out to be 87%. For the same molecule, the values for the inhibition at 0.5 mg/kg on steroid sulfatase [1] (setting [5]) and on steroid sulfatase [1] (setting [6]) were 99.5% and 100%, respectively.
